Converted amounts (≈) assume the structure as drawn.
Columns and labels:
E. coli ATCC 25922 = assay: MIC/MBC according to EUCAST guidelines; assay type: cell-based; settings: Escherichia coli, ATCC25922
Description: (§1) The antimicrobial activities of the selected compounds against several Gram-negative and Gran-positive representative species of normal human microbiota were determined according to the EUCAST guidelines. Briefly, standardized inoculums (0.5 McFarland) were freshly prepared from overnight Mueller–Hinton agar plates of reference strains E. coli ATCC 25922, K. pneumonia ATCC 700603, E. faecalis ATCC 29212, S. aureus ATCC 29213, S. epidermidis ATCC 12228, and S. agalactiae ATCC 12386. Next, bacterial suspensions adjusted to 5 × 10^5 CFU/mL in Mueller–Hinton broth were exposed to a range of concentrations from 64 to 0.031 mg/L of the selected compounds. DMSO and conventional antibiotics LVX and AMP were included as controls. […] Experiments were performed twice in triplicate.

E. faecalis ATCC 29212 = assay: MIC/MBC according to EUCAST guidelines; assay type: cell-based; settings: Enterococcus faecalis, ATCC29212
Description: as §1

S. agalactiae ATCC 12386 = assay: MIC/MBC according to EUCAST guidelines; assay type: cell-based; settings: Streptococcus agalactiae, ATCC12386
Description: as §1

S. aureus ATCC 29213 = assay: MIC/MBC according to EUCAST guidelines; assay type: cell-based; settings: Staphylococcus aureus, ATCC29213
Description: as §1

[1] = tested on: S. epidermidis ATCC 12228; assay: MIC/MBC according to EUCAST guidelines; assay type: cell-based; settings: Staphylococcus epidermidis, ATCC12228
Description: as §1

[2] = tested on: H. pylori strain ATCC 700392; assay: Time-kill kinetic assay; assay type: cell-based, Helicobacter pylori; settings: 4 × MIC, 10^4 CFU/mL
Description: Time-kill kinetics of selected HsrA inhibitors were carried out as previously described, with slight modifications. Briefly, fresh grown cells of H. pylori strain ATCC 700392 were resuspended in BHI + FBS at 1.0 × 10^4 CFU/mL and exposed to 4 × MIC of each compound. Bacteria exposed to DMSO (vehicle) instead of the HsrA inhibitors were included as a control. All cultures were incubated at 37 °C under microaerobic conditions, and aliquots were taken after 0, 2, 4, 8, and 24 h of exposure for CFU determination. Experiments were performed twice in triplicate. Results were presented as log10 CFU/mL versus hours of exposure. Differences in H. pylori survival were subjected to statistical analysis by using the Mann–Whitney U test.

H. pylori ATCC 700392 = assay: Checkerboard assay with first-line antibiotics; assay type: cell-based, Helicobacter pylori
Description: Potential synergisms between the selected HsrA inhibitors and first-line antibiotics were evaluated by using checkerboard assays, as previous described. Briefly, the antimicrobials to be tested were twofold serially diluted in BHI + FBS using independent sterile microtiter plates. Then, concentration gradients from two antimicrobials were aseptically mixed at equal volumes in a new microtiter plate, resulting in a matrix of 77 unique combinations of both compounds. Next, freshly prepared inoculum of H. pylori ATCC 700392 adjusted at 2 × 10^6 CFU/mL in BHI+ FBS were added to all wells, and plates were incubated for 72 h at 37 °C under microaerophilic conditions. […] The fractional inhibitory concentration index (FICI) for each antimicrobial combination was calculated as previously described. Values of FICI ≤ 0.5, 0.5 < FICI ≤ 1, 1 < FICI ≤ 4, and FICI > 4 were considered as indicative of synergistic, additive, neutral, or antagonist interactions, respectively.

[3] = Cytotoxicity, PrestoBlue cell viability assay; assay type: cell-based; settings: human; HeLa cells, 24 h exposure; read-out: CC50 (50% cytotoxic concentration)
Description: (§2) The in vitro toxicity of the selected HsrA inhibitors was determined on HeLa cells by the PrestoBlue^TM assay, as previously described. Briefly, cells were cultured at 37 °C with 5% CO2 in Dulbecco’s modified Eagle’s medium containing 10% fetal bovine serum, 1% L-GlutaMAX^TM solution (Thermo Fisher Scientific), and 1% penicillin/streptomycin. When 80% confluence was achieved, cells were detached, counted, seeded in 96-well microplates at a density of 10,000 cells per well, and allowed to adhere for 24 h. Next, the mammalian cells were exposed to selected compounds at a range of 0.125 to 128 mg/L. After 24 h of exposure, the cell viability was measured with the PrestoBlue^TM cell viability reagent (Thermo Fisher Scientific), according to the manufacturer’s instructions. Experiments were performed twice in triplicate. The 50% cytotoxic concentration (CC50) of each compound was calculated by regression analysis using Microsoft Excel. Therapeutic index (TI) values were calculated as the ratio of the CC50 to the higher MIC observed for each compound [111].

HeLa cells = assay: Cytotoxicity, PrestoBlue cell viability assay; assay type: cell-based; settings: for TI (CC50/MIC), therapeutic index: CC50 on HeLa / higher MIC observed against H. pylori
Description: as §2

H. pylori HsrA = assay: Fluorescence-based thermal shift assay (HTS of Maybridge HitFinder library) for HsrA ligands; assay type: binding, Helicobacter pylori; settings: 10 µM HsrA, 250 μM compound, vs DMSO controls
Description: High-throughput screening (HTS) of the Maybridge HitFinder^TM chemical library for H. pylori HsrA ligands was assessed by a fluorescence-based thermal shift assay, according to previously described procedures. Briefly, a reaction mixture containing 50 mM Tris-HCl (pH 8), 150 mM NaCl, 10% glycerol, 5 mM DTT, SYPRO® Orange ready-to-use fluorescent stain (Thermo Fisher Scientific) at a final concentration of 10 ×, and 10 µM HsrA was freshly prepared. Next, 90 μL was dispensed in every well of V-shape 96-well plates ABgene^TM Thermo-Fast^TM 96 (Thermo Fisher Scientific). Wells of columns 1 and 12 received 10 μL of DMSO (vehicle) and were used as the reference controls. The rest of the wells (columns 2 to 11) received 2.5 μL of four different compounds from the HitFinder library (250 μM as final concentration each). The unfolding curve corresponding to each well was registered from 25 °C to 75 °C in 1 °C steps using an Mx3005P™ qPCR System (Agilent Technologies, Inc., Santa Clara, CA, USA), and analyzed by Origin 7.0 (OriginLab, Northampton, MA, USA) using a homemade script that determined the midpoint temperature of unfolding (Tm).

[4] = in combination with CLR (clarithromycin)
[5] = in combination with LVX (levofloxacin)
[6] = in combination with MTZ (metronidazole)

Compound	MBC (E. coli ATCC 25922)	MIC (E. coli ATCC 25922)	MBC (E. faecalis ATCC 29212)	MIC (E. faecalis ATCC 29212)	MBC (S. agalactiae ATCC 12386)	MIC (S. agalactiae ATCC 12386)	MBC (S. aureus ATCC 29213)	MIC (S. aureus ATCC 29213)	MBC [1]	MIC [1]	Exposure time after which 10^4 H. pylori cells were completely killed [2]	FICI (H. pylori ATCC 700392; [4])	FICantibiotic (H. pylori ATCC 700392; [4])	FICinhibitor (H. pylori ATCC 700392; [4])	FICI (H. pylori ATCC 700392; [5])	FICantibiotic (H. pylori ATCC 700392; [5])	FICinhibitor (H. pylori ATCC 700392; [5])	FICI (H. pylori ATCC 700392; [6])	FICantibiotic (H. pylori ATCC 700392; [6])	FICinhibitor (H. pylori ATCC 700392; [6])	also measured
OC1(C(F)(F)F)CC(c2ccc3c(c2)Nc2ccccc2S3)=NN1 (stereo not drawn) [Ligand VIII]	> 64 µg/mL	> 64 µg/mL	64 µg/mL (≈ 182 µM)	64 µg/mL (≈ 182 µM)	32 µg/mL (≈ 91.1 µM)	16 µg/mL (≈ 45.5 µM)	32 µg/mL (≈ 91.1 µM)	16 µg/mL (≈ 45.5 µM)	4 µg/mL (≈ 11.4 µM)	4 µg/mL (≈ 11.4 µM)	2 h	0.53	0.5	0.03	2	1	1	0.625	0.5	0.125	Interaction (H. pylori ATCC 700392; [5]): Neutral (no interaction or neutral (FICI > 1 to ≤4)); CC50 at 24 h [3]: 6.5 µg/mL (≈ 18.5 µM); TI (CC50/MIC), therapeutic index (HeLa cells): 3.2; Cell death (HeLa cells; HeLa cells, 8 mg/L, 24 h): 68%
N#C/C(=C\C=C\c1ccccc1)c1nc2ccccc2[nH]1 [Ligand XII]	> 64 µg/mL	> 64 µg/mL	> 64 µg/mL	> 64 µg/mL	> 64 µg/mL	> 64 µg/mL	> 64 µg/mL	> 64 µg/mL	> 64 µg/mL	> 64 µg/mL	4 h	0.75	0.25	0.5	1	0.5	0.5	0.5	0.25	0.25	ΔTm (upshift of midpoint temperature of unfolding of HsrA) (H. pylori HsrA): 9 °C; Interaction (H. pylori ATCC 700392; [4]): Additive (additive (FICI > 0.5 to ≤1)); CC50 at 24 h [3]: 13.4 µg/mL (≈ 49.4 µM); TI (CC50/MIC), therapeutic index (HeLa cells): 6.7
CSc1cccc(Nc2nc(C(C)(C)C)cs2)c1 [Ligand XI]	> 64 µg/mL	> 64 µg/mL	64 µg/mL (≈ 230 µM)	64 µg/mL (≈ 230 µM)	8 µg/mL (≈ 28.7 µM)	8 µg/mL (≈ 28.7 µM)	32 µg/mL (≈ 115 µM)	16 µg/mL (≈ 57.5 µM)	64 µg/mL (≈ 230 µM)	16 µg/mL (≈ 57.5 µM)	4 h	0.75	0.25	0.5	2	1	1	0.563	0.5	0.063	Interaction (H. pylori ATCC 700392; [5]): Neutral (no interaction or neutral (FICI > 1 to ≤4)); CC50 at 24 h [3]: 21.8 µg/mL (≈ 78.3 µM); TI (CC50/MIC), therapeutic index (HeLa cells): 5.4; Cytotoxicity at 8 mg/L (HeLa cells; HeLa cells, 8 mg/L, 24 h): completely safe

— article PMC11432330, “Novel Drug-like HsrA Inhibitors Exhibit Potent Narrow-Spectrum Antimicrobial Activities against Helicobacter pylori” (International Journal of Molecular Sciences, 2024)
